{
  "source": "patent US10358469B2",
  "about": "“Methods and pharmaceutical compositions for the treatment of cancer” (INSERM (INSTITUT NATIONAL DE LA SANTÉ ET DE LA RECHERCHE …, priority 2014, dated 2019)",
  "key": {"[1]": {"test_system": "human triple-negative breast cancer xenograft PDX01", "assay": "Triple-negative breast cancer patient-derived xenograft PDX01 in nude mice", "format": "in vivo", "details": "2.4 mg/kg i.p., 7 daily injections, FIG. 8B", "description": "Breast cancer fragments were obtained from patients at the time of surgery, with informed written patient consent. After imaging-guided human tumor biopsies had been performed, fragments of 30 to 60 mm^3 were subcutaneously grafted in 6-week-old NMRI-nude mice (Centre-Elevage-Janvier, France), under xylasin (10 mg/kg)/ketamin (100 mg/kg) anesthesia. Mice were maintained in specific pathogen-free animal housing (Institut Universitaire d'Hematologie) and received estrogen (17 mg/mL) diluted in drinking water. Xenografts were characterized and subsequently subcutaneously transplanted from mouse to mouse. […] Two human triple-negative breast cancer (HBC) xenografts models were used in our experiments (PDX01 and PDX02). […] Following transplantation (n=6 per model) tumor growth was assessed by measuring tumor size in two dimension using a Vernier caliper. Tumor volume was calculated using the formula [3.14×long axis×short axis×short axis]/6 (Kjonniksen et al., 1989). […] Mice were weighted and the tumor size was measured by a caliper and recorded daily. Fourteen days after beginning of the treatment mice were sacrificed. The tumors, kidney, lungs, heart, liver, pancreas and spleen were taken and fixed. Paraffin-embedded sections were prepared and stained with hematoxylin and eosin for histological analysis."}, "HaCat cells": {"test_system": "HaCat cells", "assay": "Propidium iodide (PI) uptake, flow cytometry, HaCat cells", "format": "cell-based", "details": "10 μM, absence of 10% FBS, FIG. 4A", "description": "FIG. 4: Antp-AAC-11-LZ (363-399) peptide induced necrotic cell death under low serum conditions. (A) SeAx or HaCat cells cultured in the absence of 10% FBS were left untreated or treated with 4 μM or 10 μM, respectively, of the Antp-AAC-11-LZ (363-399) peptide for the indicated durations. Cells were then analyzed by flow cytometry for PI staining. The results represent the mean number of PI-positive cells±S.D. from at least three independent experiments. (B) A549 and HaCat cells were plated at a densities of 4.5×10^3 in 96 well plates (100 μL total volume per well) and allowed to attach overnight in a 37° C. incubator (5% CO2). Media was removed from cells and replaced with media containing 10 μM Antp-AAC-11-LZ (363-399) peptide (100 μL total volume per well) peptide and the plates were incubated for the indicated durations. Lactate dehydrogenase (LDH) activity released in the culture medium was then assessed and data expressed as a percentage of the maximal level (Max) of LDH activity determined after total cell lysis±S.D. from at least three independent experiments.\nCell death was evaluated upon staining with propidium iodide and flow cytometry analysis.\nWe therefore evaluated necrotic cell death of SeAx cells treated with the Antp-AAC-11-LZ (363-399) peptide by PI uptake assay following different time exposures. […]"}, "D3H2LN cells": {"test_system": "D3H2LN cells", "assay": "Matrigel invasion assay, D3H2LN cells", "format": "cell-based", "details": "2 μM, toward 10% FBS, 24 h, FIG. 7B", "description": "FIG. 7: Antp-AAC-11-LZ (363-399) peptide inhibits cell migration and invasion. (A) D3H2LN cells were added to the upper well of modified Boyden chamber (transwell) plates with a vehicle or with either 2 μM of the Antp-AAC-11-LZ (363-399) peptide or the Antp-only peptide and subjected to a transwell migration assay as described under Materials and methods. The cells were allowed to migrate toward 10% FBS for 12 […]h. Triplicate wells were used for each of three independent experiments. The results are expressed relative to the migration of the untreated cells (=100%). Column: Mean of three experiments. Bar: s.e. P-value was determined by Student's t-test (*P<0.01). (B) D3H2LN cells were seeded in a Matrigel-coated Boyden chamber with a vehicle or with either 2 μM of the Antp-AAC-11-LZ (363-399) peptide or the Antp-only peptide and subjected to a transwell migration assay as described under Materials and methods. The cells were allowed to migrate toward 10% FBS for 24 […]h. Triplicate wells were used for each of three independent experiments. The results are expressed relative to the migration of the untreated cells (=100%). Column: Mean of three experiments. Bar: s.e. P-value was determined by Student's t-test (*P<0.01) […]"}},
  "data": [
    {"substance": "Ac-RQIKIWFKKQNRRMKWKKAKLNAEKLKDFKIRLQYFARGLQVYIRQLRLALQGKT-NH2 [Antp-AAC-11-LZ (363-399)]", "values": [
      {"measurement": "tumor size versus vehicle", "setting": "[1]", "value": "significantly smaller tumors"},
      {"measurement": "loss of cell membrane integrity (PI uptake) in nonmalignant cells", "setting": "HaCat cells", "value": "much decreased loss of cell membrane integrity"},
      {"measurement": "cell invasion", "setting": "D3H2LN cells", "value": "prevented invasion"}
    ]}
  ]
}
